The record followed here is BindingDB's records for doi:10.1021/np200603g (Yunnan University, 2011).

For this assay, the target named is T1, Programmed cell death protein 4 (Homo sapiens, UniProt Q53EL6).
T1 sequence (Q53EL6 whole entry): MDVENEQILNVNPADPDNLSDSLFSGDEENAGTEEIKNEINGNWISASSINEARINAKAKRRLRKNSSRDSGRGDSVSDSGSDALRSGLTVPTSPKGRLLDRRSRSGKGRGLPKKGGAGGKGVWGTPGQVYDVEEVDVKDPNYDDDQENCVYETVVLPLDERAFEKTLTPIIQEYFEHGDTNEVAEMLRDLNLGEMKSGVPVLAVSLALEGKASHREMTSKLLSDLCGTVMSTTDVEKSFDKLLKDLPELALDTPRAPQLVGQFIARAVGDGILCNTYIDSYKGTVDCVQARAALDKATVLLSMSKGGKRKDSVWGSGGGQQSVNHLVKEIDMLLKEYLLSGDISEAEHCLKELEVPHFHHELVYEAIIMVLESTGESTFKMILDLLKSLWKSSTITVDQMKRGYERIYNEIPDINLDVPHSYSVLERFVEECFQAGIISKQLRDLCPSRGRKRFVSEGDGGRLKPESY
In words: Stabilization of Pdcd4 expressed in human HEK293 cells assessed as inhibition of TPA-induced degradation by luciferase reporter assay. (Reporter assays use an easily measured gene product as a stand-in for the process of interest.)

As to `Nc1ncnc2c1ccn2[C@@H]1O[C@H](CO)[C@@H](O)[C@H]1O` ['2-(4-AMINO-PYRROLO[2,3-D]PYRIMIDIN-7-YL)-5-HYDROXYMETHYL-TETRAHYDRO-FURAN-3,4-DIOL], the IC50 is 880 nM.

What is called IC50 is the concentration that inhibits the measured activity by half.
